# Calls of active or inactive are those of the source. No cut-off for these calls is given here.
# Experiments:
# [1] = target: T1, Melanocyte-stimulating hormone receptor (Homo sapiens, UniProt Q01726); assay: Displacement of [125I]NDP-alpha-MSH from human MC1 receptor expressed in CHO cells; type: cell-based
# Target sequence in this assay (Q01726 whole entry): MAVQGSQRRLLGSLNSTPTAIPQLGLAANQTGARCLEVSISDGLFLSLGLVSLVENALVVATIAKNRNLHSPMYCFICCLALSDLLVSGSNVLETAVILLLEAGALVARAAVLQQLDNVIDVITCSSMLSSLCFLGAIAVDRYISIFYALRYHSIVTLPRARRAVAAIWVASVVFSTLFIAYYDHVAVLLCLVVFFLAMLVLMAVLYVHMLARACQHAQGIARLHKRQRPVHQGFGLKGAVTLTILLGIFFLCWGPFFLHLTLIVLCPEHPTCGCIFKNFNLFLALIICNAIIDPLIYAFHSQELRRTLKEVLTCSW
# Melanocortin receptor 3 [2] = target: T2, Melanocortin receptor 3 (Homo sapiens, UniProt P41968); assay: Displacement of [125I]NDP-alpha-MSH from human MC3 receptor expressed in CHO cells; type: cell-based
# T2 sequence (P41968 whole entry): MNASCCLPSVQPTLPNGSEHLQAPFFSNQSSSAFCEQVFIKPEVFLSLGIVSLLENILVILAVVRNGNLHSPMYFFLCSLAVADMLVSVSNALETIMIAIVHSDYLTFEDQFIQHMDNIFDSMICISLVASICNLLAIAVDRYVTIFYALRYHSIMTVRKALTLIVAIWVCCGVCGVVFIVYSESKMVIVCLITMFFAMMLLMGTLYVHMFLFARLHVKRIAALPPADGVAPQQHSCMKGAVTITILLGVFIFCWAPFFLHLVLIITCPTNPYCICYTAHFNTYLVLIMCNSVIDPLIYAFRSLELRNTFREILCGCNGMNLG
# Melanocortin receptor 4 [3] = target: T3, Melanocortin receptor 4 (Homo sapiens, UniProt P32245); assay: Displacement of [125I]NDP-alpha-MSH from human MC4 receptor expressed in CHO cells; type: cell-based
# T3 sequence (P32245 whole entry): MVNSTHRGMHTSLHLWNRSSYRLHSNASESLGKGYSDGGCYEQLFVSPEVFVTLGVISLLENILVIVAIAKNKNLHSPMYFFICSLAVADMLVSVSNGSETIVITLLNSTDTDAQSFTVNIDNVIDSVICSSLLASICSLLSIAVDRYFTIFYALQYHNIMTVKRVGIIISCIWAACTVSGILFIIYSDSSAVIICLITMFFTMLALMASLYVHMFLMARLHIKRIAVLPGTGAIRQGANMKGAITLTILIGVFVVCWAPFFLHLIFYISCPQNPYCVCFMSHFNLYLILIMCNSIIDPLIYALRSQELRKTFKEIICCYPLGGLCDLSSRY
# Melanocortin receptor 5 [4] = target: T4, Melanocortin receptor 5 (Homo sapiens, UniProt P33032); assay: Displacement of [125I]NDP-alpha-MSH from human MC5 receptor expressed in CHO cells; type: cell-based
# T4 sequence (P33032 whole entry): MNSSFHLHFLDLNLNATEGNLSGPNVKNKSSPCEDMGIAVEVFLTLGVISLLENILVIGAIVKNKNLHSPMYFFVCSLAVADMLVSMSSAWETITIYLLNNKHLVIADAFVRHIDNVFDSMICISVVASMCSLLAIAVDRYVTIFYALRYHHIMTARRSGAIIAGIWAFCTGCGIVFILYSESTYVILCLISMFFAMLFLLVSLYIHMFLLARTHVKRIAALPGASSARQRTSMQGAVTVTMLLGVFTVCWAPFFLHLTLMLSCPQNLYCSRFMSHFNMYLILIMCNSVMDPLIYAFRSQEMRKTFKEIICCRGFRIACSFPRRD
# [5] = target: T1, Melanocyte-stimulating hormone receptor; assay: Agonist activity at human MC1 receptor expressed in CHO cells assessed as cAMP accumulation; type: functional, cell-based
# Target sequence in this assay (Q01726 whole entry): as the sequence (Q01726 whole entry) above
# [6] = target: T1, Melanocyte-stimulating hormone receptor; assay: Agonist activity at human MC1 receptor expressed in CHO cells assessed as cAMP accumulation at 10 uM relative to alpha-MSH; type: functional, cell-based
# Target sequence in this assay (Q01726 whole entry, looked up): as the sequence (Q01726 whole entry) above
# Melanocortin receptor 3 [7] = target: T2, Melanocortin receptor 3; assay: Agonist activity at human MC3 receptor expressed in CHO cells assessed as cAMP accumulation at 10 uM relative to alpha-MSH; type: functional, cell-based
# Melanocortin receptor 4 [8] = target: T3, Melanocortin receptor 4; assay: Agonist activity at human MC4 receptor expressed in CHO cells assessed as cAMP accumulation at 10 uM relative to alpha-MSH; type: functional, cell-based
# Melanocortin receptor 5 [9] = target: T4, Melanocortin receptor 5; assay: Agonist activity at human MC5 receptor expressed in CHO cells assessed as cAMP accumulation at 10 uM relative to alpha-MSH; type: functional, cell-based
# [10] = Oral bioavailability in Sprague-Dawley rat at 1 mg/kg and 4 mg/kg; type: ADME, organism-based; settings: in vivo
# [11] = Clearance in Sprague-Dawley rat at 1 mg/kg, iv and 4 mg/kg, po; type: ADME, organism-based; settings: in vivo
# [12] = Volume of distribution in Sprague-Dawley rat at 1 mg/kg, iv and 4 mg/kg, po; type: ADME, organism-based; settings: in vivo, read-out: Vdss
# [13] = Half life in Sprague-Dawley rat at 1 mg/kg, iv and 4 mg/kg, po; type: ADME, organism-based; settings: in vivo
# Melanocortin receptor 4 [14] = target: T3, Melanocortin receptor 4; assay: Agonist activity at human MC4 receptor expressed in CHO cells assessed as cAMP accumulation; type: functional, cell-based
# Melanocortin receptor 5 [15] = target: T4, Melanocortin receptor 5; assay: Agonist activity at human MC5 receptor expressed in CHO cells assessed as cAMP accumulation; type: functional, cell-based
# [16] = Oral bioavailability in Beagle dog at 1 mg/kg; type: ADME, organism-based, Canis lupus familiaris; settings: in vivo
# [17] = Clearance in Beagle dog at 1 mg/kg, po; type: ADME, organism-based, Canis lupus familiaris; parameters: dose 1 mg/kg, route oral; settings: in vivo
# Canis familiaris = assay: Volume of distribution in Beagle dog at 1 mg/kg, po; type: ADME, organism-based, Canis lupus familiaris; parameters: dose 1 mg/kg, route oral; settings: in vivo
# [18] = Half life in Beagle dog at 1 mg/kg, po; type: ADME, organism-based, Canis lupus familiaris; parameters: dose 1 mg/kg, route oral; settings: in vivo
# [19] = Oral bioavailability in rhesus monkey at 1 mg/kg; type: ADME, organism-based, Macaca mulatta; settings: in vivo
# [20] = Clearance in rhesus monkey at 1 mg/kg, po; type: ADME, organism-based, Macaca mulatta; parameters: dose 1 mg/kg, route oral; settings: in vivo
# Rhesus monkey = assay: Volume of distribution in rhesus monkey at 1 mg/kg, po; type: ADME, organism-based, Macaca mulatta; parameters: dose 1 mg/kg, route oral; settings: in vivo
# [21] = Half life in rhesus monkey at 1 mg/kg, po; type: ADME, organism-based, Macaca mulatta; parameters: dose 1 mg/kg, route oral; settings: in vivo
# Mus musculus [22] = assay: Antiobesity activity in wild type mouse assessed as reduction in food intake at 20 mg/kg after 4 hrs post dosing relative to control; type: functional; parameters: scale not given: the % may be the effect or the level left
# Mus musculus [23] = assay: Antiobesity activity in MC3R/MC4R knockout mouse assessed as reduction in food intake at 20 mg/kg after 4 hrs post dosing relative to control; type: functional, organism-based; parameters: dose 20 mg/kg
# Rattus norvegicus [24] = assay: Antiobesity activity in diet-induced obesity rat model assessed as reduction in body weight at 5 mg/kg, po BID for 14 days relative to control; type: functional, organism-based; parameters: dose 5 mg/kg
# Rattus norvegicus [25] = assay: Antiobesity activity in diet-induced obesity rat model assessed as reduction in body weight at 10 mg/kg, po BID for 14 days relative to control; type: functional, organism-based; parameters: dose 10 mg/kg
# Rattus norvegicus [26] = assay: Antiobesity activity in diet-induced obesity rat model assessed as reduction in body weight at 20 mg/kg, po BID for 14 days relative to control; type: functional, organism-based; parameters: dose 20 mg/kg
# [27] = Plasma concentration in rat at 10 mg/kg, iv after 15 mins; type: ADME, organism-based; parameters: dose 10 mg/kg, route intravenous
# Mus musculus [28] = assay: Increase in erectile activity in CN-stimulated mouse at 10 mg/kg, iv; type: functional, organism-based; parameters: dose 10 mg/kg
# Mus musculus [29] = assay: Antiobesity activity in diet-induced obesity mouse model assessed as reduction in food intake at 20 mg/kg after 4 hrs post dosing relative to control; type: functional, organism-based; parameters: dose 20 mg/kg
# [30] = target: Voltage-gated inwardly rectifying potassium channel KCNH2 (Homo sapiens, UniProt Q12809); assay: Inhibition of human ERG
# Voltage-gated inwardly rectifying potassium channel KCNH2, sequence (Q12809 whole entry): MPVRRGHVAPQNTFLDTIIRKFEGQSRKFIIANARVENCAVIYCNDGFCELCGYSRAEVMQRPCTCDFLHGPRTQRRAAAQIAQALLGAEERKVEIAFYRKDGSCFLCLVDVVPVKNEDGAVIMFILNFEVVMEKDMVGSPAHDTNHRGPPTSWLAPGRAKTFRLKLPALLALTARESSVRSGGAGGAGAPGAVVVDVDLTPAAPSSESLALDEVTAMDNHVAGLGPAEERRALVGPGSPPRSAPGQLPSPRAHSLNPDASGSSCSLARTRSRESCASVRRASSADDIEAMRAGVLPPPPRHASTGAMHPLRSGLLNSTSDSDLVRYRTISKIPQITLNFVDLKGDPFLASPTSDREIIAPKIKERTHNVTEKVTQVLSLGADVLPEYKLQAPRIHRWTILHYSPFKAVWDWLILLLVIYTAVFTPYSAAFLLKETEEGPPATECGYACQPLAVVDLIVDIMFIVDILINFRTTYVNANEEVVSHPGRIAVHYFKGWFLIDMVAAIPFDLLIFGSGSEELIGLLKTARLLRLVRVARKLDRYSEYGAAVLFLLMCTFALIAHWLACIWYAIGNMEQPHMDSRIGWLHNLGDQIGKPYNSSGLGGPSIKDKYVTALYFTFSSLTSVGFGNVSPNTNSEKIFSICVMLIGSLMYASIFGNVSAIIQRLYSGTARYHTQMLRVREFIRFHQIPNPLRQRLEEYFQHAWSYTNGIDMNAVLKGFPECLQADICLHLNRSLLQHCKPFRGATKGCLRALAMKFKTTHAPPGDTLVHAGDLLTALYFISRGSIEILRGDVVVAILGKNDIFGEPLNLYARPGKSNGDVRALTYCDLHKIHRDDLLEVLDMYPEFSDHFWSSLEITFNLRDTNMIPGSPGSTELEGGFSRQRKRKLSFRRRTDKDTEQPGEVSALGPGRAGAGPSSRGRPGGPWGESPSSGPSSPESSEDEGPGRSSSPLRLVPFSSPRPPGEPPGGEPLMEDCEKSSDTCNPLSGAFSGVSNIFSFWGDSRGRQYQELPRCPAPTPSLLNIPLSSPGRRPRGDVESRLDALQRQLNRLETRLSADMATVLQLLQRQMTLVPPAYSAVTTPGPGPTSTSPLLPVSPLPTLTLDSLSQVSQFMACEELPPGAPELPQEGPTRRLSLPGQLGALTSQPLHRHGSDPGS
# [31] = Binding affinity to calcium channel
# [32] = Binding affinity to sodium channel
# Mus musculus [33] = assay: Increase in erectile activity in CN-stimulated mouse at 0.3 mg/kg, iv; type: functional, organism-based; parameters: dose 0.3 mg/kg
# [34] = Plasma concentration in rat at 0.3 mg/kg, iv after 15 mins; type: ADME, organism-based; parameters: dose 0.3 mg/kg, route intravenous
Structure (SMILES),IC50 [1],IC50 (Melanocortin receptor 3 [2]),IC50 (Melanocortin receptor 4 [3]),IC50 (Melanocortin receptor 5 [4]),EC50 [5],Activity [6],Activity (Melanocortin receptor 3 [7]),Activity (Melanocortin receptor 4 [8]),Activity (Melanocortin receptor 5 [9]),bioavailability [10],clearance [11],Vd [12],half-life [13],EC50 (Melanocortin receptor 4 [14]),EC50 (Melanocortin receptor 5 [15]),also measured
CC[C@H](NC(C)=O)c1cc(Cl)ccc1C1CCN(C(=O)[C@@H]2CN(C(C)(C)C)C[C@H]2c2ccc(F)cc2F)CC1,,,,,,,,,,,,,,,,Activity (Rattus norvegicus [25]): Active; Activity (Mus musculus [28]): Active; Activity (Mus musculus [33]): Active; concentration at 0.25 h [34]: 47 nM
C[C@@H]1CN(C(=O)N[C@H](Cc2ccc(F)cc2)C(=O)N2CCC(C(=O)NC(C)(C)C)(C3CCCCC3)CC2)C[C@H](C)N1C,7800 nM,760 nM,16 nM,1400 nM,910 nM,14%,0.6%,21%,14%,,,,,60 nM,,
C[C@@H]1CN(C(=O)N[C@H](Cc2ccc(F)cc2)C(=O)N2CCC(C(=O)NC(C)(C)C)(C3CCCCC3)CC2)C[C@@H](C)N1,2100 nM,970 nM,11 nM,1400 nM,260 nM,39%,2.8%,66%,31%,1.9%,43 mL/min/kg,9.2 L/kg,252 min,18 nM,1000 nM,
CC[C@@H]1CN(C(=O)N[C@H](Cc2ccc(F)cc2)C(=O)N2CCC(C(=O)NC(C)(C)C)(C3CCCCC3)CC2)C[C@H](CC)N1,2100 nM,230 nM,4.7 nM,430 nM,420 nM,24%,1.2%,41%,14%,46%,36 mL/min/kg,4.7 L/kg,102 min,13 nM,,

# Second part, led by results:
IC50 [1],IC50 (Melanocortin receptor 3 [2]),IC50 (Melanocortin receptor 4 [3]),IC50 (Melanocortin receptor 5 [4]),EC50 [5],Activity [6],Activity (Melanocortin receptor 3 [7]),Activity (Melanocortin receptor 4 [8]),Activity (Melanocortin receptor 5 [9]),bioavailability [10],clearance [11],Vd [12],half-life [13],EC50 (Melanocortin receptor 4 [14]),EC50 (Melanocortin receptor 5 [15]),Structure (SMILES),also measured
2800 nM,390 nM,5.1 nM,1300 nM,400 nM,31%,0%,18%,1%,18%,62 mL/min/kg,8.2 L/kg,108 min,,,CC[C@@H]1CN(C(=O)N[C@H](Cc2ccc(F)cc2)C(=O)N2CCC(C(=O)NC(C)(C)C)(C3CCCCC3)CC2)C[C@@H](CC)N1,
3300 nM,740 nM,12 nM,1400 nM,250 nM,46%,2%,58%,30%,,,,,58 nM,1400 nM,C[C@H]1CN(C(=O)N[C@H](Cc2ccc(F)cc2)C(=O)N2CCC(C(=O)NC(C)(C)C)(C3CCCCC3)CC2)C[C@H](C)N1,
5100 nM,650 nM,4.9 nM,850 nM,,30%,3.6%,59%,22%,28%,35 mL/min/kg,4.7 L/kg,120 min,22 nM,> 3000 nM,C[C@@H]1CN(C(=O)N[C@H](Cc2ccc(F)cc2)C(=O)N2CCC(C(=O)NC(C)(C)C)(C3CCCCC3)CC2)C[C@H](C)N1,bioavailability [16]: 118%; CL/F [17]: 5.4 mL/min/kg; Vdss (Canis familiaris): 1.8 L/kg; half-life [18]: 306 min; bioavailability [19]: 20%; CL/F [20]: 5.2 mL/min/kg; Vdss (Rhesus monkey): 1 L/kg; half-life [21]: 318 min; Activity (Mus musculus [22]): 37%; Activity (Mus musculus [23]): inactive; Activity (Rattus norvegicus [24]): Active; Activity (Rattus norvegicus [25]): Active; Activity (Rattus norvegicus [26]): Active; concentration at 0.25 h [27]: 4.7 µM; Activity (Mus musculus [28]): inactive; Activity (Mus musculus [29]): Active; INH [30]: > 10 µM; Activity [31]: 9.6 µM; Activity [32]: 6.8 µM
1500 nM,33 nM,0.78 nM,54 nM,280 nM,24%,1.3%,15%,26%,,,,,,210 nM,C[C@@H]1CN(C(=O)N[C@H](Cc2ccc(Cl)cc2)C(=O)N2CCC(C(=O)NC(C)(C)C)(C3CCCCC3)CC2)C[C@H](C)N1,

# Reference: ChEMBL document CHEMBL1759997, “Discovery of a piperazine urea based compound as a potent, selective, orally bioavailable melanocortin subtype-4 receptor partial agonist” (Bioorg Med Chem Lett, 2011)
